Measurements from ChEMBL document CHEMBL3091339 (J Med Chem, 2013).
pIC50, pKi: −log10 of the molar value. Calls of active or inactive are those of the source.

What was measured:
Mus musculus [1] = experiment: Anticonvulsant activity in CD-1 mouse assessed as protection against maximal electroshock-induced tonic extension of hind limbs at 100 mg/kg, po after 0.5 hrs; type: functional, organism-based; design: dose 100 mg/kg; settings: Hindlimb
Mus musculus [2] = experiment: Neurotoxicity in CF-1 mouse at 150 mg/kg, po by rotarod test; type: toxicity, organism-based; design: dose 150 mg/kg, route oral; settings: in vivo
Mus musculus [3] = experiment: Anticonvulsant activity in CD-1 mouse assessed as protection against maximal electroshock-induced tonic extension of hind limbs at 100 mg/kg, po after 2 hrs; type: functional, organism-based; design: dose 100 mg/kg; settings: Hindlimb
Mus musculus [4] = experiment: Anticonvulsant activity in CD-1 mouse assessed as protection against maximal electroshock-induced tonic extension of hind limbs at 300 mg/kg, po after 2 hrs; type: functional, organism-based; design: dose 300 mg/kg; settings: Hindlimb
Mus musculus [5] = experiment: Anticonvulsant activity in CD-1 mouse assessed as protection against maximal electroshock-induced tonic extension of hind limbs at 300 mg/kg, po after 0.5 hrs; type: functional, organism-based; design: dose 300 mg/kg; settings: Hindlimb
[6] = AUC in beagle dog at 10 mg/kg, po; type: ADME, organism-based, Canis lupus familiaris; design: dose 10 mg/kg, route oral; settings: plasma
Mus musculus [7] = experiment: Anticonvulsant activity in intravenous PTZ-induced CF-1 mouse assessed as increase in seizure threshold for twitch at […], ip treated for 15 mins prior to PTZ-challenge relative to control; type: functional
Homo sapiens [8] = species on record: Homo sapiens; experiment: Binding affinity to central-type benzodiazepine receptor (unknown origin) at 10 uM
[9] = biological target: T1, Voltage-dependent N-type calcium channel subunit alpha-1B (Rattus norvegicus, UniProt Q02294)
Description: Inhibition of rat Cav2.2-mediated calcium flux expressed in HEK cells at 0.07 Hz by whole-cell patch-clamp assay

[10] = Half life in rat at 10 mg/kg, po; type: ADME, organism-based; design: dose 10 mg/kg, route oral; settings: in vivo
[11] = biological target: T2, 5-hydroxytryptamine receptor 2C (Homo sapiens) (UniProt P28335); experiment: Binding affinity to 5HT2C receptor (unknown origin)
T2 sequence (whole entry): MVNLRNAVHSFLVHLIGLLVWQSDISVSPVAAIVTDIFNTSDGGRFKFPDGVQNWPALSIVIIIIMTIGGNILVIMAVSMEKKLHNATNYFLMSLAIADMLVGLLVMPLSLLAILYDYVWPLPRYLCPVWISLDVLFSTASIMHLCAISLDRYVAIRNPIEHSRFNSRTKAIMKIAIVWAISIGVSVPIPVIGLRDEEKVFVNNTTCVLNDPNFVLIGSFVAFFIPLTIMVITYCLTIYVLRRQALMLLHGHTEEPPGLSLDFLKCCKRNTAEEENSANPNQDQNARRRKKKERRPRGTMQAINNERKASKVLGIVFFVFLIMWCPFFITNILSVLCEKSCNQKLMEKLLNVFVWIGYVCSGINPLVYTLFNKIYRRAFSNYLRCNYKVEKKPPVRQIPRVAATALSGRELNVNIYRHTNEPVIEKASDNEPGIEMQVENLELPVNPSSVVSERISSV

Homo sapiens [12] = species on record: Homo sapiens; experiment: Binding affinity to GABA (unknown origin) at 10 uM
in vivo [13] = settings: beagle, dog, po, 10 mg/kg
Rattus norvegicus [14] = experiment: Anticonvulsant activity in ip dosed Sprague-Dawley rat hippocampal kindling model assessed as reduction in global seizures treated 15 for mins post suprathreshold-stimulation; type: functional, organism-based; settings: Hippocampus
Rattus norvegicus [15] = experiment: Oral bioavailability in rat at 10 mg/kg; type: ADME, organism-based; settings: in vivo
Liver microsome = experiment: Drug metabolism in human liver microsomes assessed as hydroxylation metabolite formation by LC-MS/MS analysis; type: ADME
[16] = biological target: Sodium channel protein type 2 subunit alpha (Rattus norvegicus, UniProt P04775); experiment: Inhibition of rat Nav1.2 expressed in CHL1610 cells at -67 mV after 2 to 3 mins by whole-cell patch-clamp assay; type: cell-based
[17] = biological target: Voltage-dependent N-type calcium channel subunit alpha-1B (Rattus norvegicus) (UniProt Q02294); experiment: Inhibition of rat Cav2.2-mediated calcium flux expressed in HEK cells at 100 uM at 0.07 Hz by whole-cell patch-clamp assay relative to control; type: cell-based; settings: HEK293
[18] = biological target: Sodium-dependent dopamine transporter (Homo sapiens) (UniProt Q01959); experiment: Binding affinity to dopamine transporter (unknown origin)
[19] = Neurotoxicity in rat by positional sense test; type: toxicity, organism-based; settings: in vivo
[20] = biological target: Histamine H1 receptor (Homo sapiens) (UniProt P35367); experiment: Inhibition of histamine H1 receptor (unknown origin) at 10 uM relative to control
[21] = Cmax in beagle dog at 10 mg/kg, po; type: ADME, organism-based, Canis lupus familiaris; design: dose 10 mg/kg, route oral; settings: in vivo
Carbonic anhydrase 1 = Carbonic anhydrase 1 (Homo sapiens, UniProt P00915); experiment: Inhibition of carbonic anhydrase 1 (unknown origin)
[22] = Neurotoxicity in rat by muscle tone test; type: toxicity, organism-based, Muscle tissue; settings: in vivo
[23] = Cmax in rat at 10 mg/kg, po; type: ADME, organism-based; design: dose 10 mg/kg, route oral; settings: in vivo
in vivo [24] = settings: rat, po, 10 mg/kg
Mus musculus [25] = experiment: Anticonvulsant activity in intravenous PTZ-induced CF-1 mouse assessed as increase in seizure threshold for clonus at […], ip treated for 15 mins prior to PTZ-challenge relative to control; type: functional
[26] = biological target: Sodium channel protein type 2 subunit alpha (Rattus norvegicus) (UniProt P04775); type: cell-based; settings: CHL1610
[27] = biological target: T1, Voltage-dependent N-type calcium channel subunit alpha-1B; remark: listed apart in the source
Description: Inhibition of rat Cav2.2-mediated calcium flux expressed in HEK cells by FDSS assay

Homo sapiens [28] = species on record: Homo sapiens; experiment: Binding affinity to chloride channel (unknown origin) at 10 uM
Rattus norvegicus [29] = experiment: Anticonvulsant activity in ip dosed Sprague-Dawley rat hippocampal kindling model assessed as effect on after discharge duration treated 15 for mins post suprathreshold-stimulation; type: functional, organism-based; settings: Hippocampus
Canis familiaris = experiment: Oral bioavailability in beagle dog at 10 mg/kg; type: ADME, organism-based, Canis lupus familiaris; settings: in vivo
[30] = Clearance in rat at 2 mg/kg, iv; type: ADME, organism-based; design: dose 2 mg/kg, route intravenous; settings: in vivo
[31] = Volume of distribution at steady state in rat at 2 mg/kg, iv; type: ADME, organism-based; design: dose 2 mg/kg, route intravenous; settings: in vivo, read-out: Vdss
[32] = Half life in beagle dog at 10 mg/kg, po; type: ADME, organism-based, Canis lupus familiaris; design: dose 10 mg/kg, route oral; settings: in vivo
[33] = Volume of distribution at steady state in beagle dog at 2 mg/kg, iv; type: ADME, organism-based, Canis lupus familiaris; design: dose 2 mg/kg, route intravenous; settings: in vivo, read-out: Vdss
[34] = biological target: Sodium channel protein type 2 subunit alpha (Rattus norvegicus) (UniProt P04775); settings: CHL1610
[35] = Clearance in beagle dog at 2 mg/kg, iv; type: ADME, organism-based, Canis lupus familiaris; design: dose 2 mg/kg, route intravenous; settings: in vivo
[36] = biological target: Voltage-dependent N-type calcium channel subunit alpha-1B (Rattus norvegicus) (UniProt Q02294); experiment: Inhibition of rat Cav2.2-mediated calcium flux expressed in HEK cells at 100 uM at 5 Hz by whole-cell patch-clamp assay relative to control; type: cell-based; settings: HEK293
Carbonic anhydrase 2 = Carbonic anhydrase 2 (Homo sapiens, UniProt P00918)
Description: Inhibition of human carbonic anhydrase 2 by CO2 hydration assay

Mus musculus [37] = species on record: Mus musculus; experiment: animal or person; settings: CF-1, Hindlimb, po, 1 h
Description: Anticonvulsant activity in po dosed CF-1 mouse assessed as protection against maximal electroshock-induced tonic extension of hind limbs measured at 1 hr

[38] = biological target: Sodium channel protein type 2 subunit alpha (Rattus norvegicus) (UniProt P04775); type: cell-based; settings: CHL1610; remark: listed apart in the source
Rattus norvegicus [39] = experiment: Anticonvulsant activity in ip dosed Sprague-Dawley rat hippocampal kindling model assessed as suppression of seizure activity treated 15 for mins post suprathreshold-stimulation; type: functional, organism-based; settings: Hippocampus
Rattus norvegicus [40] = experiment: Anticonvulsant activity in Sprague-Dawley rat hippocampal kindling model assessed as complete absence of seizure activity at >300 mg/kg, ip treated 15 for mins post suprathreshold-stimulation; type: functional, organism-based; settings: Hippocampus

Chain of Sodium channel protein type 2 subunit alpha (Rattus norvegicus) (P04775 whole entry, looked up): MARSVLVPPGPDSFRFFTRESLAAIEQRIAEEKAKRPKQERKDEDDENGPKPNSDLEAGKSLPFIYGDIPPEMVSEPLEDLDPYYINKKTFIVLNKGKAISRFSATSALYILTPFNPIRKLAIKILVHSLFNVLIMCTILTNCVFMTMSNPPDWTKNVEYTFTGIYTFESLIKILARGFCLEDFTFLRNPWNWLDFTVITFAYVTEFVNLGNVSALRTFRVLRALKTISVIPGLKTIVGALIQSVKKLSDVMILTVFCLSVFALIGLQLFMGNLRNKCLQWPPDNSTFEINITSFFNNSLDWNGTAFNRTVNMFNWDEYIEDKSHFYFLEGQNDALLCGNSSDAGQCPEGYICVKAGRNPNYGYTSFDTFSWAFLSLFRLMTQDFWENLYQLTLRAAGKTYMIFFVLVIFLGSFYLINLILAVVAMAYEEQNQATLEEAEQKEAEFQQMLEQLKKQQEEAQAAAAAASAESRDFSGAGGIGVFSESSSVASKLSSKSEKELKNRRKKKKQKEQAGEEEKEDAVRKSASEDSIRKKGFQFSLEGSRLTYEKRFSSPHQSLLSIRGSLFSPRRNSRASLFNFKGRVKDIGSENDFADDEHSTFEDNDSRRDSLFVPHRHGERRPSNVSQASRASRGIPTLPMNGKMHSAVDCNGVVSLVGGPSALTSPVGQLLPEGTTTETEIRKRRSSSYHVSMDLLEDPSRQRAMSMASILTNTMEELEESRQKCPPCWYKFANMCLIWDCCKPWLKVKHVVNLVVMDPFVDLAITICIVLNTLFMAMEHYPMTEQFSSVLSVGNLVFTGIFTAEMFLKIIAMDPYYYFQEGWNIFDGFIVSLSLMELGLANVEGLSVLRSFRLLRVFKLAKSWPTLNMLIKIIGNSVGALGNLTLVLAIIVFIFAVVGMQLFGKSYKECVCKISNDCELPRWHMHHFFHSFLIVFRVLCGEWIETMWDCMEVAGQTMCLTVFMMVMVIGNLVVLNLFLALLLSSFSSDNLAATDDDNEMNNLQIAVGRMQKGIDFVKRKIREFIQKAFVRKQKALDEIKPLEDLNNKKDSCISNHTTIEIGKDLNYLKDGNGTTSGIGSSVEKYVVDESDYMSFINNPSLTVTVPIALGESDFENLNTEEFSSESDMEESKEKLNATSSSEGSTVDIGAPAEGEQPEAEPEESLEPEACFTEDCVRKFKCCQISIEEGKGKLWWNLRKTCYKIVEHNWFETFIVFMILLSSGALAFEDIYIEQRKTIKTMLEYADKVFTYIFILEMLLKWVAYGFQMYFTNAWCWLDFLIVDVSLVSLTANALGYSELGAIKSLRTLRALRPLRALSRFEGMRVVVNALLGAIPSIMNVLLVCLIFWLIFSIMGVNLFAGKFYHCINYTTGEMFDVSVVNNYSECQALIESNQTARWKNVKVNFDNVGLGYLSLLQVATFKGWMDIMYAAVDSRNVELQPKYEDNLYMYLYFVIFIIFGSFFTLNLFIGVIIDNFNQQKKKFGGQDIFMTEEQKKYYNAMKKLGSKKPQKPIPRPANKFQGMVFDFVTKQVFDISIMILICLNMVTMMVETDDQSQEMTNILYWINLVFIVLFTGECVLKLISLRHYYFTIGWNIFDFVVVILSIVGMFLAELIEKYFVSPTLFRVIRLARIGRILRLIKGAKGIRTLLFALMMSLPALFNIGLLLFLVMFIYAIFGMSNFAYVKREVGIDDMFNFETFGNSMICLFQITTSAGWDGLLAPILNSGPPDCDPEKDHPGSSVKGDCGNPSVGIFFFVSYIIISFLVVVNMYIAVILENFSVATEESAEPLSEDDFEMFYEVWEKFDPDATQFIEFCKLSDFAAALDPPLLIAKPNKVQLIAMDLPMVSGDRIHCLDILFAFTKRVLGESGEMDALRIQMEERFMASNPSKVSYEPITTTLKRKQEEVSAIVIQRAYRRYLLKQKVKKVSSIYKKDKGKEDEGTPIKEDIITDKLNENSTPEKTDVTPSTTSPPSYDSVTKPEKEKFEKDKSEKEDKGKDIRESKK
Chain of Voltage-dependent N-type calcium channel subunit alpha-1B (Rattus norvegicus) (Q02294 whole entry, looked up): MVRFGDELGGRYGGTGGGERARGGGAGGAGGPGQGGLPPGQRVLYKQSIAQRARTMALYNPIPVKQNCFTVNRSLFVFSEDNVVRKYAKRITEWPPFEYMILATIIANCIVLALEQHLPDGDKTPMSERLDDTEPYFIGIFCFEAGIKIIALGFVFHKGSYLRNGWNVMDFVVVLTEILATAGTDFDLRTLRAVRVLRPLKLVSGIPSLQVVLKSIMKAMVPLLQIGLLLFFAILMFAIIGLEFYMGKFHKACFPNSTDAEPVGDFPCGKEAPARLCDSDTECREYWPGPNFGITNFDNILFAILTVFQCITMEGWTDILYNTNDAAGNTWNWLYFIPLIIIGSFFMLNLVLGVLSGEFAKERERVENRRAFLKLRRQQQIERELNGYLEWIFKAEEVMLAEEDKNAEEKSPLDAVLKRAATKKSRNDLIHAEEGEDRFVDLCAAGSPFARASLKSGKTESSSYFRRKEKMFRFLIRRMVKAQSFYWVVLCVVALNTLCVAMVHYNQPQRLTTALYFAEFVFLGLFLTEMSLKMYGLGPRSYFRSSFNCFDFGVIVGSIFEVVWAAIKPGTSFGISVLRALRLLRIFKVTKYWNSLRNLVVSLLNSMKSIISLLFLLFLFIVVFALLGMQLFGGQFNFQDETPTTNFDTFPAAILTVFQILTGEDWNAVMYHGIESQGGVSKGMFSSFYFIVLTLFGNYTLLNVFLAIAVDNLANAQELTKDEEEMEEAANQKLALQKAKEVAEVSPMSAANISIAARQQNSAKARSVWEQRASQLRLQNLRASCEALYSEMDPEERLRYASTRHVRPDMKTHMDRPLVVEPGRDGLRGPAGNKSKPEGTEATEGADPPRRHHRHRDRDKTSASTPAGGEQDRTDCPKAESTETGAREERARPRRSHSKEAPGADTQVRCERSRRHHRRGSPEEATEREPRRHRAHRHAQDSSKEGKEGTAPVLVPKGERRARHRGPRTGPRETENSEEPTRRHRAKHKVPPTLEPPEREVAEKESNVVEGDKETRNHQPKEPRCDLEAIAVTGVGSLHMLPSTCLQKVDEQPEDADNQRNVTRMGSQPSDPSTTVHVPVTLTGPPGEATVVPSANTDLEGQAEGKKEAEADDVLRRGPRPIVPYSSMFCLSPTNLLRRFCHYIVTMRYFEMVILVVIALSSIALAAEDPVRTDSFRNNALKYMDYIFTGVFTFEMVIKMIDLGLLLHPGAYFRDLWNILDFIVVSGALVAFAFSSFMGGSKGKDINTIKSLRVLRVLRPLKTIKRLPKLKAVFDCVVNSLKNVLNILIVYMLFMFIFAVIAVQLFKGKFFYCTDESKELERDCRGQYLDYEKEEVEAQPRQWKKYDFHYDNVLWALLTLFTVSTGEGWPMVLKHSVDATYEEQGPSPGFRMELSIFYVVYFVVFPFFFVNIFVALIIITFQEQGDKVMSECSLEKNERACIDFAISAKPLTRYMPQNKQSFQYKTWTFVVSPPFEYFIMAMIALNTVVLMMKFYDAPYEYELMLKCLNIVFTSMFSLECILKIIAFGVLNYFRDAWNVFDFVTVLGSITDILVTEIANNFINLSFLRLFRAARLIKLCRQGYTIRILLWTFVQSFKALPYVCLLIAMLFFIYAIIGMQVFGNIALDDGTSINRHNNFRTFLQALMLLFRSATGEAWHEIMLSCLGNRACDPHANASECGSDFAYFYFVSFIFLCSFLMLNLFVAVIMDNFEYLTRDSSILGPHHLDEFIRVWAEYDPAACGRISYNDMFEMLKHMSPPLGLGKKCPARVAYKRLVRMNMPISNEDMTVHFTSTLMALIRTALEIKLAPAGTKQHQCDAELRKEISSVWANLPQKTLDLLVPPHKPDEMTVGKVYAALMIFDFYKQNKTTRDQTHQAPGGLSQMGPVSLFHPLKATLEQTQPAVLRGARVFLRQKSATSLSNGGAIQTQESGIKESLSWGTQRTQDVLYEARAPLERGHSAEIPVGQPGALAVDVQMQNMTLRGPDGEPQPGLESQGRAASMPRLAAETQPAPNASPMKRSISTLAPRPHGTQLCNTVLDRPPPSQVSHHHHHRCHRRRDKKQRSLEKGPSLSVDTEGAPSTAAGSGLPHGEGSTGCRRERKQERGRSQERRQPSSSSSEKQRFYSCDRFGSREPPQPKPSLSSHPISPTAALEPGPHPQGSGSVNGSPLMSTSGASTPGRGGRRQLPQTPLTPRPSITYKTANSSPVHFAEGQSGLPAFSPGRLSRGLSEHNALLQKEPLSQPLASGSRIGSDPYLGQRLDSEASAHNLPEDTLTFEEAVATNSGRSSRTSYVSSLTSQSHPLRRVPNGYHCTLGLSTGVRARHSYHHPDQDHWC
T1 sequence (Q02294 whole entry): as the sequence (Q02294 whole entry, looked up) above
Chain of Carbonic anhydrase 1 (P00915 whole entry): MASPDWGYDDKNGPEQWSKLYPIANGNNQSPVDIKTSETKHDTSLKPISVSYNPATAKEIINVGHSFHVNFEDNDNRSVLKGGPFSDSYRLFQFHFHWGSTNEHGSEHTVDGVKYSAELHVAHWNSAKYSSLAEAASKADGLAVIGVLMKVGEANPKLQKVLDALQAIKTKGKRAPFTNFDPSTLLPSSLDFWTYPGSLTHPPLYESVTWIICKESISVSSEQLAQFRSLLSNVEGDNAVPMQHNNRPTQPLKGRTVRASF
Chain of Sodium channel protein type 2 subunit alpha (P04775 whole entry): as the sequence (P04775 whole entry, looked up) above

Structure (SMILES): NS(=O)(=O)NC[C@H]1COc2ccc(Cl)cc2O1
- Activity (Mus musculus [1]): inactive
- Activity (Mus musculus [2]): Non-toxic

Structure (SMILES): NS(=O)(=O)NC[C@H]1COc2c(F)cccc2O1
- Activity (Mus musculus [3]): inactive
- Activity (Mus musculus [4]): Active

Structure (SMILES): CN(CC1COc2ccccc2O1)S(N)(=O)=O (racemic)
- Activity (Mus musculus [5]): Active

Structure (SMILES): NS(=O)(=O)NCC1CCc2ccccc2O1 (stereo unspecified)
- Activity (Mus musculus [5]): Active
- Activity (Mus musculus [3]): inactive

Structure (SMILES): NS(=O)(=O)NC[C@H]1COc2cc(Cl)ccc2O1 [JNJ-26489112]
- AUC [6]: 212 µg·h/mL
- Activity (Mus musculus [7]): 80%
- inhibition (Homo sapiens [8]): inactive
- pIC50 [9]: 4.15
- half-life [10]: 8.2 h
- INH [11]: 29 µM
- inhibition (Homo sapiens [12]): inactive
- Tmax (in vivo [13]): 0.917 h
- Activity (Rattus norvegicus [14]): Active
- F (Rattus norvegicus [15]): 95%
- Drug metabolism (Liver microsome): Active
- pIC50 [16]: 4.44
- inhibition [17]: 37%
- INH [18]: 16 µM
- NOAEL [19]: 500 mg/kg
- inhibition [20]: 23%
- Cmax [21]: 11500 ng/mL
- pIC50 (Carbonic anhydrase 1): 4.74
- pKi (Carbonic anhydrase 1): 5.66
- NOAEL [22]: 500 mg/kg
- Cmax [23]: 9090 ng/mL
- Tmax (in vivo [24]): 0.883 h
- Activity (Mus musculus [25]): 232%
- inhibition [26]: inactive
- Activity (Mus musculus [1]): inactive
- pIC50 [27]: 4.47
- inhibition (Homo sapiens [28]): inactive
- Activity (Rattus norvegicus [29]): inactive
- F (Canis familiaris): 83%
- clearance [30]: 1.6 mL/min/kg
- Vd [31]: 0.39 L/kg
- half-life [32]: 20 h
- Vd [33]: 0.63 L/kg
- inhibition [34]: Dose-dependent effect
- Activity (Mus musculus [4]): Active
- clearance [35]: 0.5 mL/min/kg
- inhibition [36]: 53%

Structure (SMILES): NS(=O)(=O)NC[C@H]1COc2c(Cl)cccc2O1
- pIC50 (Carbonic anhydrase 2): 3.66
- ED50 (Mus musculus [37]): 124 mg/kg
- Activity (Mus musculus [1]): inactive

Structure (SMILES): COc1cccc2c1O[C@@H](CNS(N)(=O)=O)CO2
- pIC50 (Carbonic anhydrase 2): 3.52
- Activity (Mus musculus [1]): inactive
- Activity (Mus musculus [3]): inactive

Structure (SMILES): NCC1(CC(=O)O)CCCCC1
- Activity [38]: inactive

Structure (SMILES): Cc1ccc2c(c1)O[C@@H](CNS(N)(=O)=O)CO2
- Activity (Mus musculus [5]): inactive
- Activity (Mus musculus [4]): inactive

Structure (SMILES): CCCC(CCC)C(=O)O
- Activity (Rattus norvegicus [39]): Active
- Activity (Rattus norvegicus [40]): Active

Structure (SMILES): NS(=O)(=O)NC[C@H]1COc2cc(Br)ccc2O1
- Activity (Mus musculus [5]): inactive
- Activity (Mus musculus [4]): Active

Structure (SMILES): NS(=O)(=O)NCCC1COc2ccccc2O1 (stereo unspecified)
- Activity (Mus musculus [5]): Active
- Activity (Mus musculus [1]): inactive
- Activity (Mus musculus [3]): inactive
- Activity (Mus musculus [4]): inactive
